Source: patent US20240307361A1, “METHOD FOR DIAGNOSING AND TREATING IRRITABLE BOWEL SYNDROME” (Centre for Chinese Herbal Medicine Drug Development Limited, priority 2023, published 2024)

Experiments:
[1] = biological target: T1, TAAR1 (Mus musculus, UniProt Q923Y8); experiment: TAAR1 antagonist EPPTB in phenethylamine-treated mice; type: in vivo; details: EPPTB 10 mg/kg, phenethylamine 10 mg/kg, p<0.05
T1 construct: is expressed in EC cells in the GI tract; from tissue; host or cells: living mice (conventional, antibiotic-treated, or wild-type littermates of Taar1 KO, C57Bl/6J)
T1 sequence (Q923Y8 whole entry): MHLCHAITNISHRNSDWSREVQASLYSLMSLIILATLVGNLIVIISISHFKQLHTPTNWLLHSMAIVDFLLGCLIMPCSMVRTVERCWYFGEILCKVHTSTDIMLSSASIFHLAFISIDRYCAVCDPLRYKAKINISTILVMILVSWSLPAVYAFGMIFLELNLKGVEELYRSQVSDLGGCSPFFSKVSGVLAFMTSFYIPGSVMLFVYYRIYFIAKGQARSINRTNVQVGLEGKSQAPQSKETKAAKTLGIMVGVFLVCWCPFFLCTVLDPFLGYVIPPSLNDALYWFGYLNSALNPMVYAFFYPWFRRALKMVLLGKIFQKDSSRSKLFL
Protocol: (§1) To study phenethylamine and tryptamine effects on 5-HT production, phenethylamine and tryptamine at a dosage of 2 mg/kg, 5 mg/kg and 10 mg/kg (dissolved in 0.5% CMC-Na, sodium carboxymethyl cellulose) were administered to mice by oral gavage. Mice treated with/without phenethylamine and tryptamine were sacrificed under isoflurane anesthesia. Biological samples including serum, duodenum, ileum, proximal colon and distal colon tissues and luminal contents in each intestinal segments were collected at indicated dosages and times and stored at −80° C. until analysis.
(§2) For the fecal pellet water content test, 1.5 mL Eppendorf tubes were pre-weighed and used to collect fecal pellets from mice immediately after defecation. The tubes were then closed to measure wet weight. Afterward, the tubes were opened and placed in an oven at 60° C. overnight to measure the dry weight. Fecal pellet water content was measured by subtracting the dry weight from the wet weight and normalizing it to the wet pellet mass. Fecal pellets from mice were also counted within 2 h of the defecation frequency test.
(§3) Carmine red assay: Mice were administered 300 μL of 6% carmine red solution (prepared by 0.5% methylcellulose) by oral gavage to measure the GI transit time after treatment with phenethylamine at the indicated dosages. The mice were placed on white sheet paper to track the red pellet in their cages after oral gavage. The total time taken for the appearance of the first red pellet after oral gavage was recorded as gut transit time.
(§4) Colonic tissues were lysed in RIPA buffer containing protease inhibitor cocktails in a tissuelyzer. The tissue lysates were centrifuged at 15,000 rpm for 15 min at 4° C. and quantified by BCA kit for protein concentration. The protein content normalized supernatant was mixed with 5× loading buffer and heated at 98° C. in a dry bath for 10 min. The samples were evaluated according to the western blotting protocol (Abcam). The blots were incubated with HRP-conjugated anti-rabbit IgG or anti-mouse IgG and reacted with enhanced chemiluminescence.

[2] = biological target: T1, TAAR1; experiment: EPPTB on phenethylamine-induced 5-HT elevation in mice intestine tissues cultured ex vivo; type: cell-based; details: EPPTB 50 μM, p<0.05, FIG. 5I
Protocol: (§5) Mouse and human colonic tissues were collected as previously described. To investigate the effects of phenethylamine on 5-HT levels in mouse and human colon tissues, the colonic tissues were cut into small pieces (0.5 cm) and placed in a 12-well cell culture plate. Colon pieces were added to DMEM/F12 medium containing 5% fetal bovine serum, penicillin-streptomycin (1×), and gentamycin (20 μg/ml), followed by treatment with phenethylamine and EPPTB, as indicated. Colon pieces were incubated at 37° C. with 5% CO2 and 95% air. A 200 μL volume of medium was collected from each well at the indicated time points for the analysis of 5-HT.

[3] = biological target: T1, TAAR1; experiment: EPPTB in antibiotic-treated mice transplanted with IBS-D fecal microbiota (FMT); type: in vivo; details: EPPTB 10 mg/kg, p<0.05
Protocol: A broad-spectrum antibiotic mixture (ABX) containing vancomycin (100 mg/kg), neomycin (200 mg/kg), metronidazole (200 mg/kg), and ampicillin (200 mg/kg) was used to establish an antibiotic-treated mouse model. Briefly, the antibiotic mixture was administered to mice by oral gavage for 10 consecutive days prior to fecal microbial transplantation (FMT) or the colonization study. For the fecal pellet water content test, 1.5 mL Eppendorf tubes were pre-weighed and used to collect fecal pellets from mice immediately after defecation. The tubes were then closed to measure wet weight. Afterward, the tubes were opened and placed in an oven at 60° C. overnight to measure the dry weight. Fecal pellet water content was measured by subtracting the dry weight from the wet weight and normalizing it to the wet pellet mass. Fecal pellets from mice were also counted within 2 h of the defecation frequency test. Carmine red assay: […] The mice were placed on white sheet paper to track the red pellet in their cages after oral gavage. The total time taken for the appearance of the first red pellet after oral gavage was recorded as gut transit time. Fecal samples from IBS-D patients and HC participants (n=8/group) were prepared as suspensions in PBS at a concentration of (100 mg/mL). […] After the FMT, GI transit, stool consistency, and defecation frequency were measured. […]

[4] = biological target: T1, TAAR1; experiment: EPPTB in antibiotic-treated mice colonized with R. gnavus (ATCC 29149); type: in vivo; details: EPPTB 10 mg/kg, p<0.05
Protocol: A broad-spectrum antibiotic mixture (ABX) containing vancomycin (100 mg/kg), neomycin (200 mg/kg), metronidazole (200 mg/kg), and ampicillin (200 mg/kg) was used to establish an antibiotic-treated mouse model. Briefly, the antibiotic mixture was administered to mice by oral gavage for 10 consecutive days prior to fecal microbial transplantation (FMT) or the colonization study.
R. gnavus (strain ATCC 29149) was first grown on tryptic soy broth (TSB) agar plates and cultured in TSB broth using a single colony. R. gnavus (strain ATCC 29149) was collected from the medium by centrifuging at 3,500 rpm for 10 min at room temperature. These bacterial strains were then reconstituted in 200 μL of sterilized phosphate-buffered saline and administered to antibiotic-treated mice by oral gavage. Fecal samples were collected daily to measure fecal phenethylamine levels in antibiotic-treated mice before and after oral administration of bacterial strains.
as §2, §3

[5] = biological target: T2, 5-HTR4 (Homo sapiens, UniProt Q13639); experiment: 5-HTR4 antagonist Piboserod on phenethylamine/tryptamine-stimulated 5-HT in QGP-1 cells; type: cell-based; details: 24 hours, FIG. 11M
T2 construct: endogenous in cells; host or cells: QGP-1
T2 sequence (Q13639 whole entry): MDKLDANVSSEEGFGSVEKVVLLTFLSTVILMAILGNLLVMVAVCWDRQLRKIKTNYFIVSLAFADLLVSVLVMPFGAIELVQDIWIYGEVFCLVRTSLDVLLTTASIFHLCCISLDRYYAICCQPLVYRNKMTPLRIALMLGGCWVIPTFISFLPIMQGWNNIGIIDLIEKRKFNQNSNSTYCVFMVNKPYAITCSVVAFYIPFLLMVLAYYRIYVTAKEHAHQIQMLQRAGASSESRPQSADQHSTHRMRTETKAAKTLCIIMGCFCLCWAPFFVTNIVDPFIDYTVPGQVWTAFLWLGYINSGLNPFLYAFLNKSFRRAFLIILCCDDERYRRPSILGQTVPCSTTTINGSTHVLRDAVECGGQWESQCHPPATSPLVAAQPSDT
Protocol: (§6) QGP-1 cells were cultured in RPMI 1640 medium supplemented with 10% fetal bovine serum (FBS). QGP-1 is a human pancreatic endocrine cell line that produces 5-HT. To evaluate the effects of phenylalanine, phenethylamine, and phenylacetic acid on 5-HT production, QGP-1 cells were treated with or without phenylalanine, phenethylamine, and phenylacetic acid at the indicated concentrations and times.

[6] = tested on: PKA and CaMKII; experiment: Western blot of PKA and CaMKII phosphorylation in colonic tissues of phenethylamine-treated mice; type: in vivo, mouse; details: colonic tissues of mice, 2, 5 and 10 mg/kg, p<0.05
Protocol: as §1, §4

[7] = tested on: human colonic tissues; experiment: 5-HT production in human colonic tissues cultured ex vivo; type: cell-based; details: 50 μM, p<0.05, FIG. 10A
Protocol: as §5
(§7) An Agilent 1290 Infinity II UPLC system coupled to a triple quadrupole (QQQ) 6470 mass spectrometer was used for targeted metabolomics profiling. A Waters BEH 2.1×50 mm C18 1.7 μm column with a pre-column was used. The mobile phase used in LC-MS-QQQ was solution A (water with 0.1% formic acid) and solution B (acetonitrile with 0.1% formic acid). The gradients were set as 2% B (0-0.5 min), 2%-30% B (0.5-4 min), […] B (4-6 min), 100% B (6-8 min), 100%-2% B (8-8.1 min) and maintain in 2% B (8.1-10 min). The MS data were collected and processed using Agilent software. The standard list, MRM transition, fragmentor, and collision energy are listed in (Table 3).

[8] = Phenethylamine level in intestinal tissues and luminal content after oral gavage; type: in vivo, mouse; details: for concentration at 0 min / concentration at 15 min / concentration at 30 min: mouse, oral
Protocol: as §7, §1

[9] = tested on: 5-HT production; experiment: Oral phenethylamine/tryptamine administration in mice: 5-HT levels, GI transit, fecal water content; type: in vivo, mouse; details: for GI transit / fecal water content / serum and intestinal 5-HT levels: mice, oral administration, 2, 5 and 10 mg/kg, p<0.01
Protocol: as §7, §1, §2, §3

[10] = biological target: T1, TAAR1; experiment: Phenethylamine in Taar1-/- mice and wild-type littermates; type: in vivo; details: Taar1-/- mice vs wild-type littermates, phenethylamine 10 mg/kg, p<0.05
Protocol: as §2, §3
Taar1 (NM_053205) knockout mouse model (C57Bl/6J) was generated by CRISPR/Cas-mediated genome engineering. All the Taar1 KO mice and their wildtype littermates were genotyped using PCR and Southern blot [F1: […] (SEQ ID NO:3), R1: […] (SEQ ID NO:4), R2: […] (SEQ ID NO:5)]. The product size of F1 and R1 is 989 bp while the product size of F1 and R2 is 625 bp. […]

[11] = tested on: mouse intestinal tissues; experiment: 5-HT production in mouse intestinal tissues cultured ex vivo; type: cell-based; details: 25 μM and 50 μM, p<0.05, FIG. 4A-B
Protocol: as §5, §7

[12] = tested on: QGP-1 cells; experiment: 5-HT production in QGP-1 cells; type: cell-based, human; details: 25-200 μM, 24 hours, FIG. 10D-E
Protocol: as §6, §7

[13] = serum of phenethylamine-treated mice, FIG. 5A

CCOc1cccc(NC(=O)c2ccc(N3CCCC3)c(C(F)(F)F)c2)c1 [EPPTB, N-(3-ethoxy-phenyl)-4-pyrrolidin-1-yl-3-trifluoromethyl-benzamide]
phenethylamine-induced 5-HT production ([1]; mice): suppressed | phenethylamine-induced 5-HTP/Trp and 5-HT/5-HTP ratios ([1]; mice): inhibited by EPPTB treatment | phenethylamine-induced GI transit acceleration ([1]; mice): suppressed | phenethylamine-induced colonic secretion increase ([1]; mice): suppressed | phenethylamine-induced increased levels of serum 5-HTP ([1]; mice): inhibited by EPPTB treatment | phenethylamine-induced activation of PKA and CaMKII ([1]; proximal colonic tissues of mice): inhibited | phenethylamine-induced 5-HT elevation in mice intestine tissues cultured ex vivo [2]: suppressed | pathological changes induced by transplantation of IBS-D fecal microbiota (colonic 5-HT, GI transit, defecation frequency) [3]: largely suppressed | R. gnavus-induced 5-HT elevation in serum [4]: suppressed by EPPTB treatment | R. gnavus-induced accelerated GI transit [4]: suppressed by EPPTB treatment | R. gnavus-induced increased fecal water content [4]: suppressed by EPPTB treatment

CCCCN1CCC(CNC(=O)c2c3n(c4ccccc24)CCCO3)CC1 [Piboserod]
5-HT levels stimulated by phenethylamine or tryptamine [5]: did not restore 5-HT levels | tryptamine-stimulated 5-HT production [5]: modest reduction of tryptamine-stimulated 5-HT production

NCCc1ccccc1 [phenethylamine]
phosphorylation of PKA and CaMKII [6]: an increase in the phosphorylation of these proteins | 5-HT production in human colonic tissues [7]: significantly enhanced 5-HT production | Phenethylamine level, Concentration ([8]; Duodenum, 15 min): 1082 µg/g | Phenethylamine level, Concentration ([8]; Luminal content in duodenum, 15 min): 1245 µg/g | Phenethylamine level, Concentration ([8]; Luminal content in duodenum, 30 min): 1200 µg/g | concentration at 0 min ([8]; luminal content of duodenum, Luminal content in duodenum): 3000 ng/g | concentration at 0 min ([8]; luminal content of ileum, Luminal content in ileum): 1670 ng/g | concentration at 15 min ([8]; luminal content of ileum, Luminal content in ileum, 15 min): 29700 ng/g | concentration at 30 min ([8]; luminal content of ileum, Luminal content in ileum, 30 min): 9300 ng/g | concentration at 0 min ([8]; luminal content of proximal colon, Luminal content in proximal colon): 3700 ng/g | concentration at 15 min ([8]; luminal content of proximal colon, Luminal content in proximal colon, 15 min): 112000 ng/g | concentration at 30 min ([8]; luminal content of proximal colon, Luminal content in proximal colon, 30 min): 58900 ng/g | concentration at 0 min ([8]; Duodenum): 230 ng/g | concentration at 30 min ([8]; Duodenum, 30 min): 879000 ng/g | concentration at 0 min ([8]; Ileum): 240 ng/g | concentration at 15 min ([8]; Ileum, 15 min): 24000 ng/g | concentration at 30 min ([8]; Ileum, 30 min): 8000 ng/g | concentration at 0 min ([8]; Proximal colon): 12000 ng/g | concentration at 15 min ([8]; Proximal colon, 15 min): 116000 ng/g | concentration at 30 min ([8]; Proximal colon, 30 min): 38000 ng/g | circulating 5-HTP levels ([9]; mice, 2, 5 and 10 mg/kg, FIG. 11A-C): increase in circulating 5-HTP levels in mice in a dose-dependent manner | GI transit [9]: accelerated GI transit | fecal water content [9]: increased fecal water content | serum and intestinal 5-HT levels [9]: significantly elevated serum and intestinal 5-HT levels | 5-HIAA/5-HT ratio [9, 13]: but not the 5-HIAA/5-HT ratio, were increased | 5-HT/5-HTP ratio [9, 13]: increased | 5-HTP/Trp ratio [9, 13]: increased | phenethylamine-induced changes in 5-HT production, GI transit and secretion under genetic ablation of TAAR1 [10]: abolished phenethylamine-induced changes in 5-HT production, GI transit, and secretion | 5-HT production in mouse intestinal tissues [11]: significantly enhanced 5-HT production

O=C(O)Cc1ccccc1 [phenylacetic acid]
5-HT levels in QGP-1 cells (precursors and metabolites) [12]: did not change the 5-HT levels

N[C@@H](Cc1ccccc1)C(=O)O [phenylalanine]
5-HT levels in QGP-1 cells (precursors and metabolites) [12]: did not change the 5-HT levels

NCCc1c[nH]c2ccccc12 [tryptamine]
5-HT production in human colonic tissues [7]: significantly enhanced 5-HT production | GI transit [9]: accelerated GI transit | fecal water content [9]: increased fecal water content | serum and intestinal 5-HT levels [9]: significantly elevated serum and intestinal 5-HT levels | 5-HT production in mouse intestinal tissues [11]: significantly enhanced 5-HT production

N[C@@H](Cc1c[nH]c2ccccc12)C(=O)O [tryptophan]
5-HT levels in QGP-1 cells (precursors and metabolites) [12]: did not change the 5-HT levels

indole acetic acid
5-HT levels in QGP-1 cells (precursors and metabolites) [12]: did not change the 5-HT levels
